# Assay results published in US7731985B2, “4-aminopyrimidines and their use for the antimicrobial treatment of surfaces” (Ciba Specialty Chemicals Corporation, priority 2002, dated 2010).
# Columns and labels:
# Assay in all cases: MIC in microtitre plates (Example 10)
# Format in all cases: cell-based
# Set-up in all cases: unit not given here
# Conditions in all cases: microtitre plate, 48 hours at 37° C., ≦20% growth
# [1] = system: Pseudomonas aeruginosa CIP A-22 (=PA)
# Procedure, shortened: (§1)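 DMSO-dissolved compounds tested in 1:2 serial dilution against overnight CASO broth cultures, inoculum adjusted to 1-5×10^6 CFU/ml then diluted 1:100 in CASO. Incubated 48 hours at 37° C; turbidity read at 620 nm. MIC = lowest concentration giving ≦20% growth versus control; duplicates.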
# [2] = system: Candida albicans ATCC 10231 (=CA)
# Procedure, shortened: as §1
# [3] = system: Staphylococcus aureus ATCC 9144 (=SA)
# Procedure, shortened: as §1
# [4] = system: Escherichia coli NCTC 8196 (=EC)
# Procedure, shortened: as §1
SMILES,MIC PA [1],MIC CA [2],MIC SA [3],MIC EC [4]
CCCCCCCCCCCCCCNc1cc(C)nc(-c2ccncc2)n1 [compound 77],>120,15,7.5,60
CCCCCCCCNc1cc(C)nc(-c2ccccc2)n1 [compound 64],>120,15,7.5,30
NCCNCCNc1nc(-c2ccccc2)nc(-c2cccc(C(F)(F)F)c2)c1-c1ccccc1 [compound 18],120,60,30,30
NCCN1CCN(c2nc(-c3ccccc3)nc(-c3cccc(C(F)(F)F)c3)c2-c2ccccc2)CC1 [compound 19],>120,8,7.5,15
CCCCCCCCNc1cc(C)nc(-c2ccc(C)cc2)n1 [compound 66],>120,30,<3.75,30
CCCCCCCCNc1cc(C)nc(C)n1 [compound 65],>120,15,30,60
Cc1cc(Nc2ccccn2)nc(-c2cccnc2)n1 [compound 47],>120,>120,120,>120
Cc1cc(NCc2ccccn2)nc(-c2cccnc2)n1 [compound 49],>120,>120,120,>120
Cc1cc(NCCc2ccccc2)nc(-c2cccnc2)n1 [compound 48],>120,60,30,>120
NCCCN1CCN(CCCNc2nc(-c3ccccc3)nc(-c3cccc(C(F)(F)F)c3)c2-c2ccccc2)CC1 [compound 23],30,7.5,15,7.5
Cc1ccc(-c2nc(-c3ccccc3)nc(NCCCCCCN)c2-c2ccccc2)cc1 [compound 11],>120,7.5,7.5,15
CCCCCCCCNc1cc(C)nc(C(C)C)n1 [compound 68],>120,15,15,30
NCCCOCCCCOCCCNc1nc(-c2ccccc2)nc(-c2cccc3ccccc23)c1-c1ccccc1 [compound 6],>120,>120,7.5,60
CCCCCCCCNc1cc(C)nc(-c2ccccc2)n1 [compound 63],>120,60,15,30
CCCCCCCCCCCCCCNc1cc(C)nc(-c2ccsc2)n1 [compound 74],>120,<3.75,<3.75,7.5
Cc1cc(N2CCCCCC2)nc(-c2cccnc2)n1 [compound 56],>120,120,60,>120
NCCCCCCCCNc1nc(-c2ccccc2)nc(-c2cccc3ccccc23)c1-c1ccccc1 [compound 4],>120,15,7.5,30

# Now from value to compound:
MIC PA [1],MIC CA [2],MIC SA [3],MIC EC [4],SMILES
>120,30,15,120,CCCCCCNc1cc(C)nc(-c2ccncc2)n1 [compound 112]
>120,7.5,15,15,CCCCCCCCCCCCNc1cc(C)nc(-c2ccc(-c3ccccc3)cc2)n1 [compound 84]
>120,120,>120,>120,Cc1cc(NC(C)CC(C)C)nc(C(C)C)n1 (stereo not shown) [compound 146]
>120,60,60,>120,CCCCN(C)c1cc(C)nc(C2CC2)n1 [compound 127]
>120,30,7.5,60,CCCCC(CC)CNc1cc(C)nc(-c2csc(C)n2)n1 (stereo not shown) [compound 139]
<120,7.5,15,15,CCCCCCCCCCCCNc1cc(C)nc(-c2cccs2)n1 [compound 86]
<120,7.5,15,7.5,CCCCCCCCCCCCNc1cc(C)nc(-c2ccc(C(C)(C)C)cc2)n1 [compound 85]
>120,120,60,>120,Cc1ccc(-c2nc(C)cc(NC(C)CC(C)C)n2)cc1 (stereo not shown) [compound 144]
>120,120,30,>120,CCCCN(CCCC)c1cc(C)nc(-c2csc(C)n2)n1 [compound 122]
>120,60,60,120,CCCCN(C)c1cc(C)nc(-c2cccs2)n1 [compound 124]
>120,30,15,120,CCCCCCNc1cc(C)nc(C(C)C)n1 [compound 117]
<120,7.5,15,15,CCCCCCCCCCCCNc1cc(C)nc(-c2ccccc2)n1 [compound 87]
>120,<3.75,<3.75,<3.75,CCCCCCCCCCCCCCNc1cc(C)nc(C(C)C)n1 [compound 81]
>120,>120,120,>120,CCCCC(CC)CNc1cc(C)nc(-c2ccc(C(C)(C)C)cc2)n1 (stereo not shown) [compound 131]
